Measurements published in patent publication US20070032461A1, “1,3 Aclyated 24-keto-vitamin d3 compounds and methods of use thereof” (BioXell S.p.A., priority 2003, published 2007).

Tests used:
[1] = system: ILT3 surface molecule expression on immature dendritic cells; experiment: ILT3 upregulation on monocyte-derived immature dendritic cells, flow cytometric analysis; assay type: cell-based, human; details: immature dendritic cells cultured 24 hours with graded doses, up to 1000 nM
Procedure: Immature dendritic cells (DC) were prepared as described in Romani, N. et al. (Romani, N. et al. (1996) J. Immunol. Meth. 196:137). Briefly, peripheral blood mononuclear cells (PBMCs) were obtained from a buffy coat by ficoll-hypaque gradient (Pharmacia Biotec AB, Upsala, Sweden) and monocytes isolated from PBMCs by negative selected with a monocyte isolation kit (Milteny, Biotech, Bergish Gladblach, Germany). After isolation, monocytes were cultured for 6 to 7 days at a cell density of 1-2×10^6 in RPMI medium supplemented with 5% FetalClone I (Hyclone Laboratories, Logan, Utah) 2 mM L-glutamine, […], 1 mM sodium pyruvate and 1% nonessential amino acids, containing 800 U/ml GM-CSF (Mielogen 300, Schering-Plough) and 10 ng/ml interleukin (IL)-4 (PharMingen, San Diego, Calif.). Every other day, approximately 20% of the medium was removed and replaced by the same volume of fresh medium containing GM-CSF and IL-4.
After 6 to 7 days of culture, non-adherent cells (representing immature Dendritic Cells) were harvested and cultured for 24 hours in the presence of graded doses of the following vitamin D compounds: 1,25(OH)2D3; 1,3-O-Diacetyl-1,25 Dihydroxy-16-ene-24-Keto-19-nor Cholecalciferol (compound (2)); and the compounds Mycophenolate Mofetil (MMF) and Dexamethasone (DEX).
Immunoglobulin-Hike transcript-3 upregulation was evaluated by flow cytometric analysis. Briefly, cells were preincubated with […] human IgG (Sigma Chemical, St. Louis, Mo.) and subsequently stained with anti-human ILT3 antibody (see, e.g., Cella, M. et al. (1997) J. Exp. Med. 185:1743) followed by anti-mouse IgG-phycoerithryn (Jackson). Cells were then analyzed with a FACScan® flow cytometer using a Cell Quests software program (both from Beckton Dickinson, Mountain View, Calif.).

[2] = Maximum tolerated dose (MTD) without inducing hypercalcemia, oral daily dosing for four days, serum calcium assay; assay type: in vivo, C57BL/6 mice
Procedure: The maximum tolerated dose of the vitamin D3 compounds of the invention were determined in eight week-old female C57BL/6 mice (3 mice/group) dosed orally (0.1 ml/mouse) with various concentrations of Vitamin D3 analogs daily for four days. Analogs were formulated in miglyol for a final concentration of 0.01, 0.03, 0.1 0.3, 1, 3, 10, 30, 100 and 300 μg/kg when given at 0.1 ml/mouse p.o. daily. Blood for serum calcium assay was drawn by tail bleed on day five, the final day of the study. Serum calcium levels were determined using a colorimetric assay (Sigma Diagnostics, procedure no. 597). The highest dose of analog tolerated without inducing hypercalcemia (serum calcium >10.7 mg /dl) was taken as the maximum tolerated dose (MTD).

[3] = system: IFN-γ production in MLR (allogeneic PBMC); experiment: IFN-γ production by allogeneic T cell activation in the mixed leukocyte response (MLR), ELISA; assay type: cell-based; details: 120 h, MLR of allogeneic PBMC from 2 donors, 5 days, read-out: INF-γ IC50
Procedure: Immature dendritic cells (DC) were prepared as described in Romani, N. et al. (Romani, N. et al. (1996) J. Immunol. Meth. 196:137). IFN-γ production by allogeneic T cell activation in the mixed leukocyte response (MLR) was determined as described in Penna, G., et al., J. Immunol., 164: 2405-2411 (2000).
Briefly, peripheral blood mononuclear cells (PBMC) were separated from buffy coats by Ficoll gradient and the same number (3×10^5) of allogeneic PBMC from 2 different donors were co-cultured in 96-well flat-bottom plates. After 5 days, IFN-γ production in the MLR assay was measured by ELISA and the results expressed as amount (nM) of test compound required to induce 50% inhibition of IFN-γ production (IC50).

[4] = female C57BL/6 mice, p.o. daily for four days, highest dose without hypercalcemia (serum calcium >10.7 mg/dl)

Row | Compound | ILT3 expression on cell surface [1] | MTD (mice) [2, 4] [µg/kg] | MTD relative to compound (1) ([2]; mice, oral, ratio of the MTD of compound (2) to that of the corresponding dihydroxy compound (1)) | MTD at 4 days ([2]; mouse, po, female C57BL/6 mice, p.o. daily for four days, highest dose without hypercalcemia (serum calcium >10.7 mg/dl)) [mg/kg] | IC50 [3] [pM]
1 | 1,25(OH)2D3 | upregulated | 1 |  |  | 
2 | CC(CCC(=O)C(C)(C)O)C1=CCC2C(=CC=C3CC(O)CC(O)C3)CCCC12C (centres unmarked) [(1), 1,25-dihydroxy-16-ene-24-keto-19-nor-cholecalciferol] |  | 1 |  |  | 
3 | CC(=O)O[C@@H]1CC(=C/C=C2\CCC[C@]3(C)C([C@H](C)CCC(=O)C(C)(C)O)=CCC23)C[C@@H](OC(C)=O)C1 (some centres unmarked) [Compound (2), 1,3-O-Diacetyl-1,25-Dihydroxy-16-ene-24-Keto-19-nor-Cholecalciferol] | upregulated |  | more than 300 times | > 0.3 | 8
4 | COc1c(C)c2c(c(O)c1C/C=C(\C)CCC(=O)OCCN1CCOCC1)C(=O)OC2 [MMF, Mycophenolate Mofetil] | fail to upregulate |  |  |  | 
